{"source": "patent US20200216863A1", "about": "“Use of renewable deep eutectic solvents in a one-pot process for a biomass” (National Technology & Engineering Solutions of Sandia, LLC, priority 2019, published 2020)", "key": {"yeast": {"test_system": "yeast", "conditions": "cited from earlier work"}, "yeast strain JBEI-9009": {"test_system": "yeast strain JBEI-9009", "format": "cell-based", "experimental": "Next, in order to test the feasibility of C5/C6 sugar cofermentation and thus to further improve the economic feasibility of the process,(22) the yeast strain JBEI-9009, developed in our lab for optimized xylose consumption,(30) was used for further experiments.\n(§1) The effect of DES-Ch12 supplementation on growth and carbon utilization of JBEI-9009 was analyzed in a plate reader-based assay. […] To test if the presence of DES-Ch12 in the media impairs the ability of the strain JBEI-9009 to efficiently utilize xylose, the strain was cultivated in CSM media with 2 wt % xylose containing 10 wt % Ch12 and final samples were taken for HPLC measurements."}, "[1]": {"test_system": "unmodified control strain", "format": "cell-based, yeast", "experimental": "as §1"}}, "data": [{"compound": "O=C(O)c1ccccc1", "note": "[Benzoic acid]", "values": [{"measurement": "concentration required for inhibition of yeast growth", "setting": "yeast", "value": "~1", "unit": "mM"}]}, {"compound": "O=Cc1ccc(CO)o1", "note": "[HMF, hydroxymethylfurfural]", "values": [{"measurement": "concentration with significant inhibition of yeast growth", "setting": "yeast", "value": 3, "unit": "g/L"}, {"measurement": "ethanol yield in presence of inhibitor", "setting": "yeast", "value": 89, "unit": "%"}]}, {"compound": "O=C(O)/C=C/c1ccc(O)cc1", "note": "[p-coumaric acid]", "values": [{"measurement": "concentration required for inhibition of yeast growth", "setting": "yeast", "value": "~1", "unit": "mM"}]}, {"compound": "[Ch][Cl]-2glycerol [Ch12]", "values": [{"measurement": "growth tolerance", "setting": "yeast strain JBEI-9009", "value": "without showing significant growth limitations"}, {"measurement": "lag phase", "setting": "yeast strain JBEI-9009", "value": "longer lag phase"}, {"measurement": "growth tolerance", "setting": "[1]", "value": "without showing significant growth limitations"}]}]}
